From ChEMBL document CHEMBL4507288 (2021)

What was measured:
[1] = biological target: 5-hydroxytryptamine receptor 1D (Homo sapiens, UniProt P28221); assay: GPCRScan assay: inhibition of 5-HT1D; design: radioligand conc. used [nm] 1.0 – 2.0, parental cells HEKT
[2] = biological target: Beta-1 adrenergic receptor (Homo sapiens) (UniProt P08588); details: Compound concentration 10.0 uM
[3] = biological target: Ephrin type-A receptor 3 (Homo sapiens) (UniProt P29320); details: Compound concentration 1000.0 nM
[4] = biological target: Insulin-like growth factor 1 receptor (Homo sapiens) (UniProt P08069); details: Compound concentration 1000.0 nM
[5] = biological target: Tyrosine-protein kinase Fyn (Homo sapiens) (UniProt P06241); details: Compound concentration 1000.0 nM
[6] = biological target: RAF proto-oncogene serine/threonine-protein kinase (Homo sapiens) (UniProt P04049); details: Compound concentration 1000.0 nM
[7] = biological target: Serine/threonine-protein kinase/endoribonuclease IRE1 (Homo sapiens) (UniProt O75460); details: Compound concentration 1000.0 nM
[8] = biological target: Mitogen-activated protein kinase 1 (Homo sapiens) (UniProt P28482); details: Compound concentration 1000.0 nM
[9] = biological target: Mitogen-activated protein kinase kinase kinase 3 (Homo sapiens) (UniProt Q99759); details: Compound concentration 1000.0 nM
[10] = biological target: Dual specificity mitogen-activated protein kinase kinase 3 (Homo sapiens) (UniProt P46734); details: Compound concentration 1000.0 nM
[11] = biological target: SNF-related serine/threonine-protein kinase (Homo sapiens) (UniProt Q9NRH2); details: Compound concentration 1000.0 nM
[12] = biological target: Mitogen-activated protein kinase 13 (Homo sapiens) (UniProt O15264); details: Compound concentration 1000.0 nM
[13] = biological target: Muscle, skeletal receptor tyrosine-protein kinase (Homo sapiens) (UniProt O15146); details: Compound concentration 1000.0 nM
[14] = biological target: Calcium/calmodulin-dependent protein kinase type II subunit beta (Homo sapiens) (UniProt Q13554); details: Compound concentration 1000.0 nM
[15] = biological target: Ankyrin repeat and protein kinase domain-containing protein 1 (Homo sapiens) (UniProt Q8NFD2); details: Compound concentration 1000.0 nM
[16] = biological target: Ephrin type-B receptor 6 (Homo sapiens) (UniProt O15197); details: Compound concentration 1000.0 nM
[17] = biological target: Dual serine/threonine and tyrosine protein kinase (Homo sapiens) (UniProt Q6XUX3); details: Compound concentration 1000.0 nM
[18] = biological target: Tyrosine-protein kinase Srms (Homo sapiens) (UniProt Q9H3Y6); details: Compound concentration 1000.0 nM
[19] = biological target: SRSF protein kinase 3 (Homo sapiens) (UniProt Q9UPE1); details: Compound concentration 1000.0 nM
[20] = biological target: Tyrosine-protein kinase JAK1 (Homo sapiens) (UniProt P23458); details: Compound concentration 1000.0 nM
[21] = biological target: Serine/threonine-protein kinase Nek1 (Homo sapiens) (UniProt Q96PY6); details: Compound concentration 1000.0 nM
[22] = biological target: Serine/threonine-protein kinase tousled-like 1 (Homo sapiens) (UniProt Q9UKI8); details: Compound concentration 1000.0 nM
[23] = biological target: Serine/threonine-protein kinase 26 (Homo sapiens) (UniProt Q9P289); details: Compound concentration 1000.0 nM
[24] = biological target: Serine/threonine-protein kinase ULK1 (Homo sapiens) (UniProt O75385); details: Compound concentration 1000.0 nM
[25] = biological target: Phosphatidylinositol 5-phosphate 4-kinase type-2 beta (Homo sapiens) (UniProt P78356); details: Compound concentration 1000.0 nM
[26] = biological target: Mast/stem cell growth factor receptor Kit (Homo sapiens) (UniProt P10721); details: Compound concentration 1000.0 nM
[27] = biological target: Mitogen-activated protein kinase 15 (Homo sapiens) (UniProt Q8TD08); details: Compound concentration 1000.0 nM
[28] = tested on: Phosphatidylinositol 4,5-bisphosphate 3-kinase catalytic subunit alpha isoform (Homo sapiens), P42336 [C420R]; details: Compound concentration 1000.0 nM
[29] = biological target: Serine/threonine-protein kinase D2 (Homo sapiens) (UniProt Q9BZL6); details: Compound concentration 1000.0 nM
[30] = biological target: Serine/threonine-protein kinase WNK3 (Homo sapiens) (UniProt Q9BYP7); details: Compound concentration 1000.0 nM
[31] = biological target: Serine/threonine-protein kinase RIO1 (Homo sapiens) (UniProt Q9BRS2); details: Compound concentration 1000.0 nM
[32] = biological target: STE20-like serine/threonine-protein kinase (Homo sapiens) (UniProt Q9H2G2); details: Compound concentration 1000.0 nM
[33] = biological target: Serine/threonine-protein kinase 33 (Homo sapiens) (UniProt Q9BYT3); details: Compound concentration 1000.0 nM
[34] = biological target: Non-receptor tyrosine-protein kinase TYK2 (Homo sapiens) (UniProt P29597); details: Compound concentration 1000.0 nM
[35] = tested on: Tyrosine-protein kinase ABL1 (Homo sapiens), P00519 [E255K]; details: Compound concentration 1000.0 nM
[36] = biological target: 1-phosphatidylinositol 3-phosphate 5-kinase (Homo sapiens) (UniProt Q9Y2I7); details: Compound concentration 1000.0 nM
[37] = biological target: NUAK family SNF1-like kinase 2 (Homo sapiens) (UniProt Q9H093); details: Compound concentration 1000.0 nM
[38] = biological target: Mitogen-activated protein kinase kinase kinase 9 (Homo sapiens) (UniProt P80192); details: Compound concentration 1000.0 nM
[39] = biological target: Ephrin type-A receptor 6 (Homo sapiens) (UniProt Q9UF33); details: Compound concentration 1000.0 nM
[40] = biological target: Hormonally up-regulated neu tumor-associated kinase (Homo sapiens) (UniProt P57058); details: Compound concentration 1000.0 nM
[41] = biological target: Serine/threonine-protein kinase 3 (Homo sapiens) (UniProt Q13188); details: Compound concentration 1000.0 nM
[42] = tested on: Epidermal growth factor receptor (Homo sapiens), P00533 [L858R]; details: Compound concentration 1000.0 nM
[43] = biological target: Serine/threonine-protein kinase MARK1 (Homo sapiens) (UniProt Q9P0L2); details: Compound concentration 1000.0 nM
[44] = biological target: Serine/threonine-protein kinase 38 (Homo sapiens) (UniProt Q15208); details: Compound concentration 1000.0 nM
[45] = biological target: Serine/threonine-protein kinase 17B (Homo sapiens) (UniProt O94768); details: Compound concentration 1000.0 nM

Chain of Serine/threonine-protein kinase Nek1 (Homo sapiens) (Q96PY6 whole entry): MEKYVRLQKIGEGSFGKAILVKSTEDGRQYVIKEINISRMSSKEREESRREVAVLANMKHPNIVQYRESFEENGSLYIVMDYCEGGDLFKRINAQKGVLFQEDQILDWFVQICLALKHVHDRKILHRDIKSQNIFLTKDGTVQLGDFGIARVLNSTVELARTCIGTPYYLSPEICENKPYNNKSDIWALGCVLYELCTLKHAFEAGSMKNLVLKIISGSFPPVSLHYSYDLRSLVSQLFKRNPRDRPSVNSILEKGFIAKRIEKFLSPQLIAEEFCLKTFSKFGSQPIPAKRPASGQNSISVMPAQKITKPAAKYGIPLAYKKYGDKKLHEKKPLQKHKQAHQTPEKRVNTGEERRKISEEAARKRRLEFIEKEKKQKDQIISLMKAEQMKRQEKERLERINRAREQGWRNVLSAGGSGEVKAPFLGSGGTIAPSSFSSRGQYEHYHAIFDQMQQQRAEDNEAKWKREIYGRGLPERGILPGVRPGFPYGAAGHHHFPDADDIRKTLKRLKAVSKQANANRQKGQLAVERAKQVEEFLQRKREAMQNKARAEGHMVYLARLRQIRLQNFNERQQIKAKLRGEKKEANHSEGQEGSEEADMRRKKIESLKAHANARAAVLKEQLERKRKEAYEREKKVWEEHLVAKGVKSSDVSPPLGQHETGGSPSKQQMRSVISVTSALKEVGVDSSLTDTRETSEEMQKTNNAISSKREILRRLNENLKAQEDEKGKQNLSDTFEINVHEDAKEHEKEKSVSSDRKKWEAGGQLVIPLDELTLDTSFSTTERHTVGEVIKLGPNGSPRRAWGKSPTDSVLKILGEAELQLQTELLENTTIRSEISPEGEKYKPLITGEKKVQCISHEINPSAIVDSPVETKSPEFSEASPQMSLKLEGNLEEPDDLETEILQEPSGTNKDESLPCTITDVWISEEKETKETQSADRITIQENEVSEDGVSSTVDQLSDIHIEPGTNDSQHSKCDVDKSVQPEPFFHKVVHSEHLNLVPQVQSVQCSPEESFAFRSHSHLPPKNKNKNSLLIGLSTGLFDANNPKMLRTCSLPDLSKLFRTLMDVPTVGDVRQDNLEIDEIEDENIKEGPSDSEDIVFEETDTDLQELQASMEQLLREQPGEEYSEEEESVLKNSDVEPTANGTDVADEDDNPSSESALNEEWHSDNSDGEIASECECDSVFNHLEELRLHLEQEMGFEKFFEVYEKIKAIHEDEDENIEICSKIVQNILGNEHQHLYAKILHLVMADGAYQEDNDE
Chain of Mitogen-activated protein kinase 13 (Homo sapiens) (O15264 whole entry): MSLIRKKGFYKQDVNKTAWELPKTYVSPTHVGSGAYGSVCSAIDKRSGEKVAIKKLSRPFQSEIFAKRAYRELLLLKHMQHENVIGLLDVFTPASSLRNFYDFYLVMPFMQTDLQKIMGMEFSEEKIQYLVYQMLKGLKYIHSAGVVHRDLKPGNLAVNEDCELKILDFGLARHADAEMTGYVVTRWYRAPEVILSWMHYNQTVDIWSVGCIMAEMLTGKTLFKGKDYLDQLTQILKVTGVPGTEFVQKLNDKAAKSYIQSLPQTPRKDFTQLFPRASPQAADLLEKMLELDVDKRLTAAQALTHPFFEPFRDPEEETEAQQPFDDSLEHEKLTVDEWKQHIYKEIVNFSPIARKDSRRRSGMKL
Chain of Tyrosine-protein kinase Fyn (Homo sapiens) (P06241 2-537 limits assumed): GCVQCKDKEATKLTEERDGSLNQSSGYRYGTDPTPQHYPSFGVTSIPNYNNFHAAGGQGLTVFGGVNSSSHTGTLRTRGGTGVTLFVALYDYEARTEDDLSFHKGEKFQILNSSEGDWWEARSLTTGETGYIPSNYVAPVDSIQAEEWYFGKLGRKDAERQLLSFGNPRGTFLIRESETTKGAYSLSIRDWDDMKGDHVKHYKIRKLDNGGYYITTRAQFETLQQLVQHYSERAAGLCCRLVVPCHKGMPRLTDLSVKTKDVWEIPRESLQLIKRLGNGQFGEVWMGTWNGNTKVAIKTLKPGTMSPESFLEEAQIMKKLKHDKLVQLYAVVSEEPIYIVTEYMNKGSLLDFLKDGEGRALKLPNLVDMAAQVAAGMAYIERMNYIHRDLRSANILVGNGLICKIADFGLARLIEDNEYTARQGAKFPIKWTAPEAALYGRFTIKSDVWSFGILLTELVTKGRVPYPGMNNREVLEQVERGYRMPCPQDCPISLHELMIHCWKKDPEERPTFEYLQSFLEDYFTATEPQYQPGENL
Chain of Dual serine/threonine and tyrosine protein kinase (Homo sapiens) (Q6XUX3 whole entry): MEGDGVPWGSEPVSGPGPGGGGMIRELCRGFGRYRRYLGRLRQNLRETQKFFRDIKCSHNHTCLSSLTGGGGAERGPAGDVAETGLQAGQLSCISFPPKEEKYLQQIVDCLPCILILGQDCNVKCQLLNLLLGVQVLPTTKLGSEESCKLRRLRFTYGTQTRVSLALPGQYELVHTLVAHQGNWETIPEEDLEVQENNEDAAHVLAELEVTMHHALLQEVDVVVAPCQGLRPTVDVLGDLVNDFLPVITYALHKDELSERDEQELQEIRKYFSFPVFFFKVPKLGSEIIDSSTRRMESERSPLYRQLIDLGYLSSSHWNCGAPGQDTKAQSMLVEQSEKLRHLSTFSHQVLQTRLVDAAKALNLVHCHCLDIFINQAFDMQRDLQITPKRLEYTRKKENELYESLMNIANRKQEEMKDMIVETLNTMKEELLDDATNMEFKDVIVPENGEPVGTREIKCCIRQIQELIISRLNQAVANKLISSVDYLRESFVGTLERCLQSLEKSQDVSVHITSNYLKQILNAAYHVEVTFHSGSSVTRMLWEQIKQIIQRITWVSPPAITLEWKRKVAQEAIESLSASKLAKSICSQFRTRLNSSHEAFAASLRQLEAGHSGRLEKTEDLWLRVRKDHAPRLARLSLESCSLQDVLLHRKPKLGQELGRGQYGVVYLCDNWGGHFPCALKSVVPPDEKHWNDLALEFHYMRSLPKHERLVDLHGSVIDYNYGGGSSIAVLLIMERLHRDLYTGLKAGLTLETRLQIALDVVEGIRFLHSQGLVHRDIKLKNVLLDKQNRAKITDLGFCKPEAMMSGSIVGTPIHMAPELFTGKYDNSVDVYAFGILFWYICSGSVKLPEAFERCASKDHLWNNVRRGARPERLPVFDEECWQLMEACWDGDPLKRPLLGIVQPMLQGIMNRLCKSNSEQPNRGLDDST
Chain of Phosphatidylinositol 5-phosphate 4-kinase type-2 beta (Homo sapiens) (P78356 whole entry): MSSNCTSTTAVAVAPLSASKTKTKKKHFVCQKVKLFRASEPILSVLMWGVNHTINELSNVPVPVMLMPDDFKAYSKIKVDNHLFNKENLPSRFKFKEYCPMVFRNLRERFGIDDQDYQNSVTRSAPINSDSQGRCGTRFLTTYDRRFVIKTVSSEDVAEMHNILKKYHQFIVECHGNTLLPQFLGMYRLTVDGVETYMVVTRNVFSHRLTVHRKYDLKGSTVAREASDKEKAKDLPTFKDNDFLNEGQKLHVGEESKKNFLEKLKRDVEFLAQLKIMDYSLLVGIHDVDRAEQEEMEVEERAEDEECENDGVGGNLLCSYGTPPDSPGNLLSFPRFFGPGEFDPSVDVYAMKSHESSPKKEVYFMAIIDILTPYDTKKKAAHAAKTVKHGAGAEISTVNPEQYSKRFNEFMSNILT
Chain of Hormonally up-regulated neu tumor-associated kinase (Homo sapiens) (P57058 whole entry): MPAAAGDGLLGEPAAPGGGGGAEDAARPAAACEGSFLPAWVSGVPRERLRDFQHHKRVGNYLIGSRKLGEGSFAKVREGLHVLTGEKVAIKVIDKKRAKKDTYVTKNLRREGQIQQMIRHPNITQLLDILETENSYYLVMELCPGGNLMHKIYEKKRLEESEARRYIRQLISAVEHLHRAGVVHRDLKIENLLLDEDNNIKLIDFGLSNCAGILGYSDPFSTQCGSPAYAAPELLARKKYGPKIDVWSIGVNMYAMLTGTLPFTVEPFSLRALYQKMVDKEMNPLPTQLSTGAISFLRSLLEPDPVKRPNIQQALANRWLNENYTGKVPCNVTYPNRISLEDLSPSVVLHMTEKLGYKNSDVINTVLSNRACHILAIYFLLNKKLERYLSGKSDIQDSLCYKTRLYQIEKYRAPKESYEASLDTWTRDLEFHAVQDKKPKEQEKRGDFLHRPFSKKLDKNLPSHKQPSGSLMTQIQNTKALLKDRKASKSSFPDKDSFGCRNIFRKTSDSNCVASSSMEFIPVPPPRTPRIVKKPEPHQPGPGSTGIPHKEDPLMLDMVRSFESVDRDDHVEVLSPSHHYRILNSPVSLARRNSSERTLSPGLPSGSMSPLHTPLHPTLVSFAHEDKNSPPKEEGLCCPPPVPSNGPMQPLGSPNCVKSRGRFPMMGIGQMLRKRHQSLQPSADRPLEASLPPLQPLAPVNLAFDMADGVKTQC
Chain of SRSF protein kinase 3 (Homo sapiens) (Q9UPE1 whole entry): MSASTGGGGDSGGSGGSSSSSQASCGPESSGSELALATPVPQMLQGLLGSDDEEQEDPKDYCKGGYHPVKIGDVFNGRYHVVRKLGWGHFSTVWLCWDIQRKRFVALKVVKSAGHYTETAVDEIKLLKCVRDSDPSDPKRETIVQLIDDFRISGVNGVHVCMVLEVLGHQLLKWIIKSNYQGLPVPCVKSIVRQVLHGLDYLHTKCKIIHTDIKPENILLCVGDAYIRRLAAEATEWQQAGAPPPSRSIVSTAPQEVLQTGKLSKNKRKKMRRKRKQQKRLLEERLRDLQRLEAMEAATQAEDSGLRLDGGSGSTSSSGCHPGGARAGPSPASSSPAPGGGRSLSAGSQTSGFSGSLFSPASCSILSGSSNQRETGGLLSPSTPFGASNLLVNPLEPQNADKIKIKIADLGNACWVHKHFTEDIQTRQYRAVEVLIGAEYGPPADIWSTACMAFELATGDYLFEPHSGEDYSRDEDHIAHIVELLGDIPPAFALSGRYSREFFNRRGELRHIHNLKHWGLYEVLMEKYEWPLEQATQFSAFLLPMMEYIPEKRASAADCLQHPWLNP

CC(C)(C)OC(=O)N1CCCC1CNC1CCC(c2cc(F)ccc2F)(S(=O)(=O)c2ccc(Cl)cc2)CC1 (stereo not given) [GSI-NC]
Ki [1]: 234 nM
inhibition [2]: 3.61%

O=S(=O)(NC1CCC(c2cc(F)ccc2F)(S(=O)(=O)c2ccc(Cl)cc2)CC1)C(F)(F)F (stereo not given) [MRK-560]
residual activity [3]: 100%
residual activity [4]: 100%
residual activity [5]: 85%
residual activity [6]: 100%
residual activity [7]: 100%
residual activity [8]: 100%
residual activity [9]: 100%
residual activity [10]: 83%
residual activity [11]: 100%
residual activity [12]: 100%
residual activity [13]: 100%
residual activity [14]: 97%
residual activity [15]: 92%
residual activity [16]: 100%
residual activity [17]: 100%
residual activity [18]: 100%
residual activity [19]: 100%
residual activity [20]: 70%
residual activity [21]: 100%
residual activity [22]: 100%
residual activity [23]: 85%
residual activity [24]: 84%
residual activity [25]: 68%
residual activity [26]: 100%
residual activity [27]: 94%
residual activity [28]: 36%
residual activity [29]: 79%
residual activity [30]: 100%
residual activity [31]: 98%
residual activity [32]: 100%
residual activity [33]: 76%
residual activity [34]: 86%
residual activity [35]: 100%
residual activity [36]: 60%
residual activity [37]: 100%
residual activity [38]: 98%
residual activity [39]: 100%
residual activity [40]: 100%
residual activity [41]: 100%
residual activity [42]: 100%
residual activity [43]: 100%
residual activity [44]: 100%
residual activity [45]: 97%
